Experimental data taken from US20230225990A1, “DIMETHYL SULFONE FOR TREATMENT OF CHRONICALLY HEAT STRESSED POULTRY” (Evonik Operations GmbH, priority 2020, published 2023).
Marks after values point to notes of the source that are not given here.

Experiments:
[1] = system: male broilers subjected to chronic cyclic heat stress; test: Rectal temperature and panting frequency during heat stress; type: in vivo, broiler chickens (Ross 308)
Description: The finisher period started at d-21, and the chronic cyclic heat stress (HS) protocol was applied from d-24 until d-39. Starting from d-24, the temperature was increased from 22° C. to 34° C. for 6 hours per day (from 9:00 to 15:00) with relative air humidity (RH) between 52 and 58%. From 8:00 to 9:00, the temperature was increased from 22° C. to 34° C., and from 15:00 to 16:00, the temperature was decreased from 34° C. to 22° C. The rest of the day the temperature was 22° C. The room was equipped with heaters with thermostats, and air circulators to enable the desired temperature and RH to be maintained, providing sufficient ventilation and air conditions. RH was adjusted with manual spraying of water on stable walls, periodically. The temperature and the RH were recorded at 10-min intervals with a dry bulb thermo-hygrometer (Escort RH iLog, Escort Verification Technologies Inc., Buchanan, United States).
Rectal temperature and panting frequency (video analyses) (for 2 selected birds per pen on 3 days: d-24, d-31 and d-38, measured after 4 h of heat stress that day)

[2] = system: male broilers subjected to chronic cyclic heat stress; test: Parameters in blood of birds sampled at d-23, d-25 and d-39; type: in vivo, broiler chickens (Ross 308); settings: for GSSG/GSH / Glutathione (GSH) / Oxidized glutathione (GSSG): erythrocytes; for Glutathione peroxidase / Heat shock protein 70 / Malondialdehyde / Super oxide dismutase: plasma; for Nitric oxide / T3 (triiodothyronine) / T3/T4 / T4 (thyroxine): serum
Description: Sampling of one bird per pen (with weight close to average weight of the pen) on d-23, d-25 and on d-39 (on d-25 and d-39, sampling starts after >3 h of heat stress that day; 108 birds in total) • malondialdehyde, HSP70 (Chicken Heat Shock Protein 70, Hsp-70 ELISA Kit) Cusabio Code CSB-E11196Ch), HSP90 (Chicken Heat Shock Protein 90, HSP-90 ELISA Kit; Cusabio Code CSB-E12873C), GPx, SOD in plasma; GSH/GSSG in erythrocytes; and T3, T4 and nitric oxide in serum • Breast muscle and liver: malondialdehyde, AOX (GPx, SOD), GSH/GSSG
For physiological measurements, time of sampling (representing the number of minutes between the beginning of heat stress and the precise moment of sampling of the bird that day), if appropriate, was included in the model as a covariable if significant as well. Orthogonal contrasts were applied to test for linear and quadratic effects upon incremental levels of DMS supplementation in the diet. Means are given as estimated marginal means (least square means). Means were separated using the Tukey post-hoc test. Differences were considered significant when p<0.05 and as a trend for significance when p<0.1.
Heat shock protein 70 and heat shock protein 90 were determined in plasma employing the competitive inhibition enzyme immunoassay technique (HSP70, Chicken Heat Shock Protein 70, Hsp-70 ELISA Kit; Cusabio Code CSB-E11196Ch) and the quantitative sandwich enzyme immunoassay technique (HSP90, Chicken Heat Shock Protein 90, HSP-90 ELISA Kit; Cusabio Code CSB-E12873C), respectively. Regarding HSP-90 very low absorbances were found and in most cases fell below the lowest standard dilution. Values were then typically less than 0.39 ng/mL, the minimum detectable dose as mentioned in the user manual. For that reason, no data for HSP-90 could be reported here. Opposite to that, HSP-70 worked properly and values were all above sensitivity of 0.125 ng/mL. No treatments effects on HSP-70 could be perceived on either sampling day, apart from a trend for linear reduction on d-23. […] It must be noted that large variation across samples was found on d-39. Thyroxine (T4) could not be detected on d-23, while higher values were found on d-25 and d-39. A trend for linear increase on d-39 by higher DMS dose was observed. […] It means that conversion efficiency was not altered by diet. Irrespective of treatment is the sharp reduction in circulating T3 levels as birds age and thus subjected for long period to heat stress. As indicated above, this can be regarded as an adaptation to reduce body metabolism and hitherto metabolic heat production, and apparently birds fed DMS seems to be less affected. Nitric oxide was not different across treatments at any sampling day. Further, interesting changes in malondialdehyde, a marker of lipid peroxidation, were found. […] The higher GSH in DMS-fed chickens thus promotes antioxidant function and redox homeostasis. However, no relation could be established between plasma malondialdehyde and erythrocyte glutathione (FIG. 17).

[3] = 0.1% DMS in diet (T2), Total, all days
[4] = 0.1% DMS in diet (T2), d-24, during heat stress
[5] = 0.1% DMS in diet (T2), d-31, during heat stress
[6] = 0.1% DMS in diet (T2), d-38, during heat stress
[7] = 0.2% DMS in diet (T3), Total, all days
[8] = 0.2% DMS in diet (T3), d-24, during heat stress
[9] = 0.2% DMS in diet (T3), d-31, during heat stress
[10] = 0.2% DMS in diet (T3), d-38, during heat stress

CS(C)(=O)=O [DMS, dimethyl sulfone]
Panting [1, 3]: 141 #/min
Rectal temperature [1, 3]: 42.6^ab ° C.
Panting [1, 4]: 119^ab #/min
Rectal temperature [1, 4]: 42.3 °C
Panting [1, 5]: 158 #/min
Rectal temperature [1, 5]: 42.9 °C
Panting [1, 6]: 147 #/min
Rectal temperature [1, 6]: 42.7 °C
Panting [1, 7]: 137 #/min
Rectal temperature [1, 7]: 42.5^b ° C.
Panting [1, 8]: 112^b #/min
Rectal temperature [1, 8]: 42.3 °C
Panting [1, 9]: 143 #/min
Rectal temperature [1, 9]: 42.6 °C
Panting [1, 10]: 152 #/min
Rectal temperature [1, 10]: 42.6 °C
GSSG/GSH ([2]; 0.1% DMS in diet (T2), d-23): 0.015
Glutathione (GSH) ([2]; 0.1% DMS in diet (T2), d-23): 1.07 µmol/mL
Oxidized glutathione (GSSG) ([2]; 0.1% DMS in diet (T2), d-23): 0.017 µmol/mL
GSSG/GSH ([2]; 0.1% DMS in diet (T2), d-25): 0.017^a
Glutathione (GSH) ([2]; 0.1% DMS in diet (T2), d-25): 0.59 µmol/mL
Oxidized glutathione (GSSG) ([2]; 0.1% DMS in diet (T2), d-25): 0.010 µmol/mL
GSSG/GSH ([2]; 0.1% DMS in diet (T2), d-39): 0.017
Glutathione (GSH) ([2]; 0.1% DMS in diet (T2), d-39): 0.64^ab μmol/mL
Oxidized glutathione (GSSG) ([2]; 0.1% DMS in diet (T2), d-39): 0.011 µmol/mL
Glutathione peroxidase ([2]; 0.1% DMS in diet (T2), d-23): 0.82 U/mL
Heat shock protein 70 ([2]; 0.1% DMS in diet (T2), d-23): 1.69 ng/mL
Malondialdehyde ([2]; 0.1% DMS in diet (T2), d-23): 14.4 nmol/mL
Super oxide dismutase ([2]; 0.1% DMS in diet (T2), d-23): 84.1 % inhibition
Glutathione peroxidase ([2]; 0.1% DMS in diet (T2), d-25): 0.84 U/mL
Heat shock protein 70 ([2]; 0.1% DMS in diet (T2), d-25): 1.07 ng/mL
Malondialdehyde ([2]; 0.1% DMS in diet (T2), d-25): 14.3 nmol/mL
Super oxide dismutase ([2]; 0.1% DMS in diet (T2), d-25): 81.3 % inhibition
Glutathione peroxidase ([2]; 0.1% DMS in diet (T2), d-39): 0.97 U/mL
Heat shock protein 70 ([2]; 0.1% DMS in diet (T2), d-39): 2.77 ng/mL
Malondialdehyde ([2]; 0.1% DMS in diet (T2), d-39): 15.7 nmol/mL
Super oxide dismutase ([2]; 0.1% DMS in diet (T2), d-39): 79.5 % inhibition
Nitric oxide ([2]; 0.1% DMS in diet (T2), d-23): 6.02 µmol/L
T3 (triiodothyronine) ([2]; 0.1% DMS in diet (T2), d-23): 2.43^a μg/L
Nitric oxide ([2]; 0.1% DMS in diet (T2), d-25): 4.31 µmol/L
T3 (triiodothyronine) ([2]; 0.1% DMS in diet (T2), d-25): 1.74 µg/L
T3/T4 ([2]; 0.1% DMS in diet (T2), d-25): 0.342
T4 (thyroxine) ([2]; 0.1% DMS in diet (T2), d-25): 0.53 µg/dL
Nitric oxide ([2]; 0.1% DMS in diet (T2), d-39): 3.84 µmol/L
T3 (triiodothyronine) ([2]; 0.1% DMS in diet (T2), d-39): 1.10 µg/L
T3/T4 ([2]; 0.1% DMS in diet (T2), d-39): 0.193
T4 (thyroxine) ([2]; 0.1% DMS in diet (T2), d-39): 0.60 µg/dL
GSSG/GSH ([2]; 0.2% DMS in diet (T3), d-23): 0.018
Glutathione (GSH) ([2]; 0.2% DMS in diet (T3), d-23): 1.25 µmol/mL
Oxidized glutathione (GSSG) ([2]; 0.2% DMS in diet (T3), d-23): 0.023 µmol/mL
GSSG/GSH ([2]; 0.2% DMS in diet (T3), d-25): 0.013^b
Glutathione (GSH) ([2]; 0.2% DMS in diet (T3), d-25): 0.70 µmol/mL
Oxidized glutathione (GSSG) ([2]; 0.2% DMS in diet (T3), d-25): 0.009 µmol/mL
GSSG/GSH ([2]; 0.2% DMS in diet (T3), d-39): 0.015
Glutathione (GSH) ([2]; 0.2% DMS in diet (T3), d-39): 0.67^a μmol/mL
Oxidized glutathione (GSSG) ([2]; 0.2% DMS in diet (T3), d-39): 0.010 µmol/mL
Glutathione peroxidase ([2]; 0.2% DMS in diet (T3), d-23): 0.92 U/mL
Heat shock protein 70 ([2]; 0.2% DMS in diet (T3), d-23): 1.00 ng/mL
Malondialdehyde ([2]; 0.2% DMS in diet (T3), d-23): 14.2 nmol/mL
Super oxide dismutase ([2]; 0.2% DMS in diet (T3), d-23): 80.4 % inhibition
Glutathione peroxidase ([2]; 0.2% DMS in diet (T3), d-25): 0.86 U/mL
Heat shock protein 70 ([2]; 0.2% DMS in diet (T3), d-25): 1.08 ng/mL
Malondialdehyde ([2]; 0.2% DMS in diet (T3), d-25): 13.2 nmol/mL
Super oxide dismutase ([2]; 0.2% DMS in diet (T3), d-25): 84.1 % inhibition
Glutathione peroxidase ([2]; 0.2% DMS in diet (T3), d-39): 1.09 U/mL
Heat shock protein 70 ([2]; 0.2% DMS in diet (T3), d-39): 4.23 ng/mL
Malondialdehyde ([2]; 0.2% DMS in diet (T3), d-39): 14.9 nmol/mL
Super oxide dismutase ([2]; 0.2% DMS in diet (T3), d-39): 87.1 % inhibition
Nitric oxide ([2]; 0.2% DMS in diet (T3), d-23): 6.06 µmol/L
T3 (triiodothyronine) ([2]; 0.2% DMS in diet (T3), d-23): 2.06^b μg/L
Nitric oxide ([2]; 0.2% DMS in diet (T3), d-25): 4.48 µmol/L
T3 (triiodothyronine) ([2]; 0.2% DMS in diet (T3), d-25): 1.72 µg/L
T3/T4 ([2]; 0.2% DMS in diet (T3), d-25): 0.351
T4 (thyroxine) ([2]; 0.2% DMS in diet (T3), d-25): 0.50 µg/dL
Nitric oxide ([2]; 0.2% DMS in diet (T3), d-39): 3.14 µmol/L
T3 (triiodothyronine) ([2]; 0.2% DMS in diet (T3), d-39): 1.12 µg/L
T3/T4 ([2]; 0.2% DMS in diet (T3), d-39): 0.180
T4 (thyroxine) ([2]; 0.2% DMS in diet (T3), d-39): 0.63 µg/dL
